PubChem BioAssay AID2305 (GlaxoSmithKline (GSK), 2010)

These molecules were tested on P. falciparum 3D7 growth, pLDH absorbance (assay: P. falciparum 3D7 growth inhibition, dose response, strain 3D7 (AID 2305)).

Point of comparison: `CC(C)Cc1nc(N)nc(N)c1-c1ccc(Cl)cc1`, IC50 140 nM. Against it:
- Cc1cc(-c2cnc(N)c(-c3ccc(N4CCN(C)CC4)cc3)c2)cc(C)c1O — 8.4-fold higher, 1170 nM
- COc1ccc2nc3cc(Cl)ccc3c(Nc3ccc(Sc4ccc(Nc5c6ccc(Cl)cc6nc6ccc(OC)cc56)cc4)cc3)c2c1 — within 1.5-fold, 200 nM
- Oc1cccc(CNCCCN(Cc2ccccc2)c2ccccc2)c1 — 4.3-fold higher, 600 nM
- Cc1nc(-c2cccc(Nc3nccc(NCC(O)c4ccc(C(F)(F)F)cc4)n3)c2)cs1 (stereo not drawn) — 3.6-fold higher, 510 nM
- O=C(/C=C/c1ccc(Cl)c(Cl)c1)N1CCC(CN2CCC(c3c[nH]c4cc(C(F)(F)F)ccc34)CC2)CC1 — 5.7-fold higher, 800 nM
- COc1ccc(S(=O)(=O)NC2CCN(c3cc(C)nc(Nc4cccc(C#N)c4)n3)CC2)cc1 — 6.8-fold higher, 950 nM
- O=C(CCCCCCc1ccccc1)Nc1ccc2nc3c(c(NCc4ccccc4)c2c1)CCCC3 — 2.6-fold higher, 360 nM
- Fc1cccc(C=NNc2ccnc3ccc(C(F)(F)F)cc23)c1 — 5.2-fold higher, 730 nM
- Cc1cc2cc(-c3ccc(CN)cc3)ccc2nc1N — 8.1-fold higher, 1130 nM
- CCC(C)NC(=O)Nc1ccc(-c2cccc(-c3nc4ccccc4[nH]3)c2)cc1 (stereo not drawn) — 5.9-fold higher, 820 nM
- CCCOc1cc(O)c(-c2n[nH]c(C)c2Oc2ccccc2)cc1CC — 7.6-fold higher, 1070 nM
- CC(C)CCn1c(Sc2ccc(C#N)c([N+](=O)[O-])c2)nnc1-c1cccc(Cl)c1 — 4.8-fold higher, 670 nM
- O=C(NCCc1ccc(F)cc1)c1ccc(N2CCN(c3ccncc3)CC2)nc1 — 10-fold higher, 1420 nM
- Cc1cc(-c2cccc(CNCc3ccc(F)cc3)c2)ccc1S(=O)(=O)NCCN1CCCC1 — 5.2-fold higher, 730 nM
- O=C(Nc1ccc(C(=O)N(Cc2ccc3c(c2)OCO3)C2CCCC2)cc1)c1cccs1 — 4.6-fold higher, 650 nM
- COc1cc2nc(N(C)C)nc(Nc3ccc4c(cnn4Cc4ccccc4)c3)c2cc1OC — 3.5-fold lower, 40 nM
- CC(C)NCc1ccc(-c2ccc(-c3nc4ccc(F)cc4[nH]3)cc2)cc1 — 1.5-fold higher, 210 nM
- CCOC(=O)c1c(NC(=O)c2ccccc2)sc2c(O)c(CNC3CCCCC3)ccc12 — 5.4-fold higher, 750 nM
- COc1ccc2nc3cc(Cl)ccc3c(Nc3ccc(Oc4ccc(Nc5c6ccc(Cl)cc6nc6ccc(OC)cc56)cc4)cc3)c2c1 — 6.1-fold higher, 860 nM
- COc1ccc(NC(=O)Nc2ccc(-c3ccncc3)c(Cl)c2)cc1N1CCN(C)CC1 — 5.4-fold higher, 760 nM
- COc1cccc(C2CCCN(CCCCNC(=O)c3ccc(NC(=O)c4ccc(Cl)cc4)cc3)C2)c1 (stereo not drawn) — 6.1-fold higher, 860 nM
- COc1ccccc1N1CCN(CCCCNC(=O)c2ccc(NC(=O)c3cc4ccccc4o3)cc2)CC1 — 7-fold higher, 980 nM
- Cc1cccc2[nH]c(-c3ccc(-c4ccc(CN5CCN(CC6CCCN(C)C6)CC5)cc4)s3)nc12 (stereo not drawn) — the same, 140 nM
- Clc1ccc2nccc(N3CCC(CN4CCC(c5c[nH]c6ccccc56)CC4)CC3)c2c1 — 4.7-fold lower, 30 nM
- Fc1ccc2nc(-c3cccc(-c4ccc(CNCc5cnn(-c6ccccc6)n5)cc4)c3)[nH]c2c1 — 6.6-fold higher, 920 nM
- OC(CNc1cccc(Cl)c1)Cn1c2ccc(Cl)cc2c2cc(Cl)ccc21 (stereo not drawn) — 6.9-fold higher, 960 nM
- COc1ccc(C(C(=O)NC2CCN(C[C@H](O)c3ccnc4ccc(OC)cc34)CC2)N2CCc3ccccc3C2)cc1 (stereo partly drawn) — 5-fold higher, 700 nM
- O=C(c1cccc(-c2cccc(-c3nc4ccc(C(F)(F)F)cc4[nH]3)c2)c1)N1CCCCC1CN1CCC(O)C1 (stereo not drawn) — 2-fold higher, 280 nM
- O=C(NCc1ccc(F)cc1)Nc1ccc(-c2cccc(-c3nc4ccc(F)cc4[nH]3)c2)cc1 — 8-fold higher, 1120 nM
- CS(=O)(=O)Nc1ccc2c(C3CCN(CC4CCN(C(=O)/C=C/c5ccc(Cl)c(Cl)c5)CC4)CC3)c[nH]c2c1 — 5.4-fold higher, 760 nM
- C[C@@H](N=C(Nc1ccc(-c2ccccc2)cc1)Nc1ccc(C#N)cc1O)c1ccc(Br)cc1 — 5-fold higher, 700 nM
- O=C(NCCCCCN1CCC(c2c[nH]c3ccccc23)CC1)c1ccc(-c2cccnc2)cc1 — 7.4-fold higher, 1030 nM
- Cc1ccc(Cc2cnc(NCCSCc3ccc(CN4CCOCC4)o3)[nH]c2=O)cn1 — 7.6-fold higher, 1070 nM
- CSc1ccc(C[C@@H](C)NC[C@H](O)c2cccc(Cl)c2)cc1 — 6.7-fold higher, 940 nM
- Cc1cc2nc(-c3ccc(OCC(=O)NCc4ccc(C(C)(C)C)cc4)cc3)[nH]c2cc1C — 7.6-fold higher, 1060 nM
- NCc1cccc(-c2ccc3ccnc(N)c3c2)c1 — within 1.5-fold, 170 nM
- CCCCCCNc1cc(C)nc(/N=C(\N)Nc2cccc(C(F)(F)F)c2)n1 — 5.3-fold higher, 740 nM
- CC(C)(C)Nc1nc(Nc2cccc([N+](=O)[O-])c2)nc(-n2ccnc2)n1 — 5.8-fold higher, 810 nM
- NC(N)=NN=Cc1ccc2ccc3ccccc3c2c1 — 2.7-fold higher, 380 nM
- CCOc1ccccc1C(=O)Nc1cccc(-c2nc3ncccn3c2C)c1 — 6.1-fold higher, 850 nM
- O=C(Nc1ccc(Cl)c(C(F)(F)F)c1)c1ccc(Cl)c([N+](=O)[O-])c1 — 8-fold higher, 1120 nM
- CN(C)CCN(C)Cc1ccc(-c2ccc(NC(=O)c3cccc(C#N)c3)cc2)cc1 — 9.1-fold higher, 1270 nM
- COc1ccc(-c2ccc(NC(=O)c3ccc(C#N)cc3)cc2)cc1CN1CCNCC1 — 3.6-fold higher, 510 nM
- CCOc1ccccc1CCNC(C)Cc1ccc(C(=O)Nc2ccc(CC(C)NCCc3cccc(Cl)c3)cc2)cc1 (stereo not drawn) — 3.9-fold higher, 540 nM
- CC(C)C[C@H](NC(=O)c1cc2ccccc2s1)C(=O)N[C@H]1CCN(Cc2ccc(I)c(OCCN3CCCC3)c2)C1 — 9.6-fold higher, 1350 nM
- Cc1nc(-c2nc(NCCc3cnccn3)ncc2-c2ccsc2)sc1C — 6.3-fold higher, 880 nM
- Nc1nc(N)c2c(ccc3nn(Cc4cccnc4)cc32)n1 — 2.6-fold higher, 360 nM
- CC1(C)CCCC(=Cc2ccc(Br)cc2)C1(O)Cn1ccnc1 (stereo not drawn) — 5.6-fold higher, 790 nM
- Cc1cc(N2CCCC2)nc(/N=C(\N)Nc2cccc(C(F)(F)F)c2)n1 — 2.3-fold higher, 320 nM
- COCCCn1c(=N)c(C(=O)NCCc2ccc(OC)cc2)cc2c(=O)n3cccc(C)c3nc21 — 7.4-fold higher, 1030 nM
- c1cc(CN2CCN(CCN3CCOCC3)CC2)cc(-c2ccc(-c3nc4ccccc4[nH]3)cc2)c1 — within 1.5-fold, 130 nM
- C=CCc1cc(Cc2cnc(N)nc2N)cc(CCC)c1OC — 9.7-fold higher, 1360 nM
- OC(CNCc1cccc(Oc2ccc(Cl)cc2)c1)c1cccc(C(F)(F)F)c1 (stereo not drawn) — 6.9-fold higher, 970 nM
- O=C(Nc1ccc(C(F)(F)F)cc1)NC1CCN(c2ccnc3cc(Cl)ccc23)CC1 — within 1.5-fold, 180 nM
- O=C(C=Cc1ccccc1)Nc1ccc(C#CC=Cc2ccc(NC(=O)C=Cc3ccccc3)cc2)cc1 — 6.1-fold higher, 850 nM
- O=S(=O)(NCCN1CCCC1)c1ccc(-c2cccc(CNCCc3cccs3)c2)cc1 — 6.6-fold higher, 930 nM
- COc1cc2nc(N(C)C3CCN(Cc4ccccc4)CC3)nc(N)c2cc1OC — 2.4-fold higher, 330 nM
- CCCc1cc(OC)c(CC2c3cc(O)c(Cl)cc3CCN2C)cc1OC (stereo not drawn) — 4.1-fold higher, 570 nM
- NS(=O)(=O)c1cccc(-c2ccc3c(=O)[nH]cnc3c2)c1 — 6.8-fold higher, 950 nM
- NC(=O)c1cc2nc(NC3CCC3)nc(Nc3cccc4[nH]ncc34)c2[nH]1 — 5.2-fold higher, 730 nM
- Cc1ccc(Oc2c(-c3ccccc3CN3CCCC3CN(C)C)cnn(C)c2=O)cn1 (stereo not drawn) — 8.3-fold higher, 1160 nM
- Nc1nc(N)c2c(Oc3ccc(Cl)c(Cl)c3)cccc2n1 — 6.2-fold higher, 870 nM
- CCOC(=O)/C(=N\OC(C(=O)OC(C)(C)C)c1ccccc1)c1csc(NC(c2ccccc2)(c2ccccc2)c2ccccc2)n1 (stereo not drawn) — 7.9-fold higher, 1110 nM
- Cc1nc(-c2cccc(C(=O)NC3CCC(CCN4CCc5ccc(-c6cccnc6)cc5CC4)CC3)c2)no1 (stereo not drawn) — 5.4-fold higher, 760 nM
- COc1ccc2ncc(F)c(CCN3CC[C@@H](CNCc4cc5c(cn4)OCS5)C3)c2n1 — 8.3-fold higher, 1160 nM
- COc1ccc(Nc2nccc(N3CCC(NC(=O)Nc4ccc5c(c4)OCO5)C3)n2)cc1 (stereo not drawn) — 4.3-fold higher, 600 nM
- COc1ccc(-c2cccc(NC(=O)c3cccc(Cl)c3)c2)cc1CN1CCCC1 — 5.2-fold higher, 730 nM
- Cc1cc(-c2ccc3c(c2)CC[C@@H](N[C@@H](C)c2ccccc2)C3)cnc1N — 12-fold higher, 1730 nM
- COc1cc(C(=O)N2CC[C@@H](CCN3CCC4(CC3)CN(S(C)(=O)=O)c3ccccc34)C[C@H]2Cc2ccc(Cl)c(Cl)c2)cc(OC)c1OC — 6-fold higher, 840 nM
- Cc1nc(SCC(=O)N2CCCC2=O)c2c(C)c(C)sc2n1 — within 1.5-fold, 170 nM
- O=C(c1ccc(F)c2ccccc12)N1CCc2cc3nccc(N4CCN5CCC[C@H]5C4)c3cc21 — 7.1-fold higher, 1000 nM
- C[C@@H](NC(C)(C)C)[C@H](O)c1ccc(Cl)c(C(F)(F)F)c1 — 5.3-fold higher, 740 nM
- C=CCCCNCC(NCCCNc1cc(=O)c2ccccc2[nH]1)c1cc(Br)cc(Br)c1 (stereo not drawn) — 6.4-fold higher, 890 nM
- Cn1nc(-c2ccc(NC(=O)Nc3cc(C(F)(F)F)ccc3F)c(F)c2)c2cnc(NCCCn3ccnc3)nc21 — 5.3-fold higher, 740 nM
- O=C(CSc1nc(-c2ccccc2Cl)ns1)Nc1cccc(Cl)c1 — 5.6-fold higher, 790 nM
- CCCC(C)Nc1nc(C)cc(NCCC(=O)Nc2ccccc2)n1 (stereo not drawn) — 6.9-fold higher, 960 nM
- CS(=O)(=O)CCNCc1ccc(-c2ccc3ncnc(Nc4ccc(OCc5ccccc5)c(Cl)c4)c3c2)o1 — 4-fold higher, 560 nM
- CCN(CC)CCCCCNc1c2ccc(Cl)cc2nc2ccc(OC)cc12 — 2.8-fold lower, 50 nM
- NC(=O)C1CCN(Cc2ccc(-c3ccc(-c4nc5ccc(C(F)(F)F)cc5[nH]4)cc3)cc2)CC1 — 4.9-fold higher, 680 nM
- Cc1cc(NC(=O)Nc2ccc3ncccc3c2)c2ccccc2n1 — 6.9-fold higher, 960 nM
- O=[N+]([O-])c1cc(C(c2ccc(O)c([N+](=O)[O-])c2)C(Cl)(Cl)Cl)ccc1O — 5.2-fold higher, 730 nM
- CCC(=O)c1ccc(-c2ccc(=O)n(CC(=O)N(CCN(CC)CC)Cc3ccc(-c4ccc(C(F)(F)F)cc4)cc3)n2)cc1 — 5.1-fold higher, 720 nM
- CC(C)CCn1c(Sc2ccc(C#N)c([N+](=O)[O-])c2)nnc1-c1ccc(N(C)C)cc1 — 5.6-fold higher, 790 nM
- COc1ccccc1CNC(=O)CCn1c(=O)[nH]c2ccsc2c1=O — 7.4-fold higher, 1040 nM
- CCc1ccc(NC(=O)c2ccc(CN3CCCN(Cc4cccs4)CC3)cc2)cc1 — 5.9-fold higher, 830 nM
- COc1ccc2ncc(Cl)c(NCC3(O)CCC(NCc4ccc5c(n4)NC(=O)CS5)CC3)c2n1 (stereo not drawn) — 4.3-fold higher, 600 nM
- COc1c(C2CCN(CCCCNC(=O)c3ccc(-c4ccc(C#N)cc4)nc3)CC2)ccc2c1CCCC2 — 3.8-fold higher, 530 nM
- Fc1cc(Cl)ccc1Nc1ccnc2cc(-c3scnc3CNCCN3CCOCC3)ccc12 — 6.1-fold higher, 850 nM
- COc1cc(Cc2cnc(N)nc2N)cc(OCCCCC2NC(=O)NC2=O)c1OC (stereo not drawn) — 5.1-fold higher, 710 nM
- CCc1c(C)nc(-n2nc(C)cc2NC(=O)c2cccc3ccccc23)[nH]c1=O — 4.9-fold higher, 680 nM
- Cc1cc(F)ccc1-c1nc(NCC(O)CNCCc2ccccc2)nc2c1ccc(=O)n2-c1c(F)cccc1F (stereo not drawn) — 3.9-fold higher, 540 nM
- CCOCc1cnc(C)nc1CNC(=O)c1c(C)[nH]c2ccc(C)cc12 — 7.2-fold higher, 1010 nM
- COc1ccc(N2CCN(CCCCNC(=O)c3ccc(NC(=O)c4cccc(Cl)c4)cc3)CC2)c(OC)c1 — 6.5-fold higher, 910 nM
- CN1CCc2ccc(NC(=O)Nc3cccc([N+](=O)[O-])c3)cc2C1 — 7.9-fold higher, 1100 nM
- CC1(C)Cc2c(oc3ncn(CCn4cnc5oc6c(c5c4=N)CC(C)(C)SC6)c(=N)c23)CS1 — 5.1-fold higher, 720 nM
- COc1ccccc1-c1csc(C(=O)NC2CCCCN(Cc3ccc(C(C)(C)C)cc3)C2)c1 (stereo not drawn) — 11-fold higher, 1530 nM
- COc1cc2c(cc1COc1ccccc1)CCN1Cc3cc(OC)c(OC)cc3CC21 (stereo not drawn) — within 1.5-fold, 150 nM
